Results on 2 molecules are retold here after paper PMC9610702, “Synthesis, Characterization, and Biological Evaluation of Tetrahydropyrimidines: Dual-Activity and Mechanism of Action” (Pharmaceutics, 2022).

Each structure is given as a SMILES string. Converted amounts (≈) assume the structure as drawn.

Assay [1] concerns Bacillus subtilis. In words: antibacterial MIC, broth tube dilution. The format is cell-based. The source says: (§1) In this paper, the synthesis, characterization, and biological evaluation of the novel tetrahydropyrimidines—THPMs are described. THPMs are well-known for wide pharmacological activities such as antimicrobial, anticancer, antiviral, etc. This research includes obtained results of in vitro antimicrobial, anticancer, and α-glucosidase inhibitory activities of the eleven novel THPMs. An antibiotic assessment was done against five bacteria (two Gram-positive and three Gram-negative) and five fungi by determining the minimal inhibitory concentration (MIC), using the broth tube dilution method. […] The cytotoxic activity was performed on the tumor cell lines (HeLa, K562, and MDA-MB-231) and normal cells (MRC-5). The best antitumor activity was shown by compounds 4b and 4k against HeLa cell lines.
(§2) All materials and methods used for biological examination (antibacterial, antifungal, anticancer, and α-glucosidase inhibitory activities) and crystal structure determination are presented in the Supplementary Materials, File S1.

For assay [2], the system named is Escherichia coli. Put plainly: antibacterial MIC, broth tube dilution. Type of assay: cell-based.
From the text: as §1, §2

In assay [3] the test system is Klebsiella oxytoca. Put plainly: antibacterial MIC, broth tube dilution. The format is cell-based.
From the text: as §1, §2

Assay [4] has as its system Proteus mirabilis. Put plainly: antibacterial MIC, broth tube dilution. The format is cell-based. Conditions: ND = not detected, read-out: MIC.
From the text: as §1, §2

Assay [5] deals with Staphylococcus aureus. Put plainly: antibacterial MIC, broth tube dilution. Type of assay: cell-based.
From the text: as §1, §2

Assay [6] concerns Aspergillus flavus. Put plainly: antifungal MIC, broth tube dilution. Type of assay: cell-based.
From the text: as §1, §2

In assay [7] the test system is Aspergillus niger. Put plainly: antifungal MIC, broth tube dilution. The format is cell-based.
From the text: as §1, §2

The test system of assay [8] is Mucor mucedo. Put plainly: antifungal MIC, broth tube dilution. The format is cell-based.
From the text: as §1, §2

Assay [9] concerns Penicillium italicum. Put plainly: antifungal MIC, broth tube dilution. The format is cell-based.
From the text: as §1, §2

The test system of assay [10] is Trichophyton mentagrophytes. Put plainly: antifungal MIC, broth tube dilution. The format is cell-based.
From the text: as §1, §2

In assay [11] the test system is HeLa cells. In words: cytotoxic activity. Type of assay: cell-based. Conditions: for selectivity coefficient: HeLa compared with MRC-5 cells; for IC50: Homo sapiens, HeLa, three independent experiments in triplicate, read-out: IC50 Average ± SD. The source says: (§3) All materials and methods used for biological examination (antibacterial, antifungal, anticancer, and α-glucosidase inhibitory activities) and crystal structure determination are presented in the Supplementary Materials, File S1. The cytotoxic activity of eleven novel compounds was examined against HeLa, K562, MDA-MB-231, and MRC-5. The tested compounds exerted concentration-dependent cytotoxic effects on cell lines. […] Compared to compound 4j, 4k has a methyl group in para position of benzoyl fragment; so, probably this structural difference is responsible for better activity and selectivity of compound 4k on HeLa (43.63 ± 1.49 µM) and K562 (39.11 ± 2.90 µM).

Assay [12] deals with K562 cells. In words: cytotoxic activity. Conditions: for IC50: Homo sapiens, K562, three independent experiments in triplicate, read-out: IC50 Average ± SD. Type of assay: cell-based.
From the text: as §3

Assay [13] relates to MDA-MB-231 cells. Put plainly: cytotoxic activity. Conditions: Homo sapiens, three independent experiments in triplicate, read-out: IC50 Average ± SD. Type of assay: cell-based.
From the text: as §3

Assay [14] concerns normal human lung fibroblasts MRC-5. In words: cytotoxic activity on normal cells. Type of assay: cell-based. Conditions: MRC5, MRC-5 normal fibroblasts, three independent experiments in triplicate, read-out: IC50 Average ± SD.
From the text: as §2
The cytotoxic activity of eleven novel compounds was examined against HeLa, K562, MDA-MB-231, and MRC-5.
The cytotoxic activity was examined against HeLa, K562, MDA-MB-231 cells, and normal human lung fibroblasts MRC-5. […] In addition, the effects of the 4k and 4b on the cell cycle were examined.

Assay [15] has as its target α-glucosidase. Put plainly: α-glucosidase inhibitory activity. The format is biochemical. The following applies: average ± SD of two experiments.
From the text: as §2

Assay [16] deals with HeLa cells. In words: cell-cycle phase distribution. Type of assay: cell-based. Conditions: 24 h, IC50 and 2IC50 concentrations, vs untreated control.
From the text: as §2
The observed changes in the amounts of treated cells within subG1 and G1 phases of the cell cycle were accompanied with decreased percentages of cells within the S and G2/M phases.
The data shown represent the average ± standard deviation of two independent experiments.

The subject of assay [17] is HeLa cells. Put plainly: morphological evaluation of cell death mode, acridine orange/ethidium bromide staining. Conditions: 24 h, 2IC50 concentration. Type of assay: cell-based. The procedure: as §2
The photomicrographs of control HeLa cells and HeLa cells incubated for 24 h with 2IC50 concentrations of the compounds 4b and 4k and stained with a mixture of acridine orange/ethidium bromide are presented in Figure 5. […] Orange-red-stained shrunken cells with condensed chromatin in later stages of apoptosis were detected as well. […] The proapoptotic effect of compound 4b was to some extent stronger when comparing with effect of compound 4k.
Figure 5 Photomicrographs of acridine orange/ethidium bromide-stained control HeLa cells and HeLa cells incubated with 2IC50 concentrations of compounds 4b and 4k during 24 h (magnification 20×). Representative photomicrographs are shown.

By MIC is commonly meant the lowest concentration found to suppress growth. Broadly, the IC50 is the concentration at which inhibition is half-maximal.

Take `COC(=O)C1=C(C)N(C)C(=S)NC1c1cc(I)c(O)c(OC)c1` (centres unmarked) [4b]: the MIC was found to be 3250 µg/mL (≈ 7.25 mM) in assay [1]; 1620 µg/mL (≈ 3.61 mM) in assay [2]; 1620 µg/mL (≈ 3.61 mM) in [3]; 810 µg/mL (≈ 1.81 mM) in assay [4]; 1620 µg/mL (≈ 3.61 mM) in [5]; 1620 µg/mL (≈ 3.61 mM) in assay [6]. Moreover, the MIC was determined as 810 µg/mL (≈ 1.81 mM) in [7], 1620 µg/mL (≈ 3.61 mM) in assay [8], 1620 µg/mL (≈ 3.61 mM) in assay [9] and 400 µg/mL (≈ 0.892 mM) in assay [10]. Besides, in assay [11], the selectivity coefficient turned out to be 2.13. The IC50 worked out at 52.6 ± 4.45 µM in [11]; 76.8 ± 5.01 µM in [12]; 116 ± 8.71 µM in assay [13]; 112 ± 10.8 µM in assay [14]; 292 ± 6.67 µM in [15]. Also, in assay [16], the “percentage of HeLa cells in the G1 phase” value is on record as “pronounced increase”. In assay [16], the “percentage of dead cells within subG1 phase” value is listed as “increase”. In addition, in assay [16], the “percentages of cells within the S and G2/M phases” value was “decreased”. Moreover, the “cell death mode (apoptosis)” value in assay [17] is “induce apoptotic cell death”.

As to `COC(=O)C1=C(C)N(C)C(=S)NC1c1ccc(OC(=O)c2ccc(C)cc2)c(OC)c1` (centres unmarked) [4k], the MIC in [1] came to 3250 µg/mL (≈ 7.38 mM); in assay [2], 3250 µg/mL (≈ 7.38 mM); in assay [3], 3250 µg/mL (≈ 7.38 mM); in assay [4], 3250 µg/mL (≈ 7.38 mM); in [5], 3250 µg/mL (≈ 7.38 mM); in assay [6], 810 µg/mL (≈ 1.84 mM). The MIC in assay [7] was 1620 µg/mL (≈ 3.68 mM); in assay [8], 1620 µg/mL (≈ 3.68 mM); in [9] it was 1620 µg/mL (≈ 3.68 mM); in [10], 200 µg/mL (≈ 0.454 mM). Further, the selectivity coefficient in [11] turned out to be 2; in [12] (K562 compared with MRC-5 cells) it was 2.23. Also, the IC50 in [11] was found to be 43.6 µM; in assay [12], 39.1 ± 2.9 µM; in assay [13], 74.1 ± 1.25 µM; in [14], 87.2 ± 7.31 µM; in assay [15], 1080 ± 54.5 µM. In assay [16], the “percentage of HeLa cells in the G1 phase” value was “pronounced increase”. Moreover, in [16], the “percentage of dead cells within subG1 phase” value is “increase”. In addition, the “percentages of cells within the S and G2/M phases” value in [16] was “decreased”. The “cell death mode (apoptosis)” value in [17] was “activate apoptosis”.
